Here are results for three substances from patent publication US9846167B2 (priority 2013, dated 2017).

Where two headings read alike, the source gives them in different places.

Test [1] is classed as binding. Particulars: hydroxyapatite nanoparticles in PBS, single stain, FIG. 1. The method, then:
Samples were analyzed using the Apogee A50 Nanoscale Flow Cytometer.
An isotype negative control was prepared for each Alendronate compound. […] (AL-Cy5) was Notdronate-Cy5 (NT-Cy5).

The conditions of test [2]: single stain.

Regarding FITC alendronate [AL-FITC], the “probe-positive events (AL-positive / NT-positive background)” value in test [1] is recorded as “significantly higher AL-positive events”.
Still for that read-out and setting: the same measure for Sulfo-Cy5 alendronate [AL-Cy5]: “significantly higher AL-positive events”.
Turning to fluorescein-4-butanol [NT-FITC], the “probe-positive events, probe versus its isotype negative control” value in test [2] (MGUS patient plasma, FIG. 4) is reported as “higher count of events”; in test [2] (Multiple Myeloma patient plasma, FIG. 8) it was “higher count of events”; in test [2] (plasma of another MGUS patient, FIG. 6), “higher count of events”. Further, the probe-positive events result in test [2] (healthy volunteer plasma, FIG. 2) is “significantly higher”. Moreover, the “probe-positive events (AL-positive / NT-positive background)” value in test [1] is on record as “minimal”.
